According to patent publication US4419123A, “Herbicidal 4-trifluoromethyl-3'-carbon-substituted-4'-substituted diphenyl ethers” (Rohm and Haas Company, priority 1981, dated 1983):

What was measured:
wheat = assay: Crop tolerance (selective herbicidal activity), wheat; type: in vivo
Experimental: (§1) The following test procedure is employed.
(§2) Following the general test procedure of Example 37, diphenyl ethers are evaluated for significant tolerance (as shown by 50% or less kill of the test crop at levels of application which give more than 50% kill of many or all of the weeds of Example 73) towards some or all of the following common agronomic crops (not all compounds tested against all crops): alfalfa, snapbeans, corn, cotton, cucumbers, peanuts, rape, rice, safflower, soybeans, tomatoes, and wheat.

[1] = Preemergence herbicidal activity (% control) against dicot weeds; settings: pre-emergence, 336 h; for activity at 2241.7 g/ha: read-out: Herbicidal activity (% control), preemergence, dicots, 2 lb./A., average, about two weeks after application; for activity at 4483.4 g/ha: read-out: Herbicidal activity (% control), preemergence, dicots, 4 lb./A., average, about two weeks after application
[2] = Postemergence herbicidal activity (% control) against dicot weeds; settings: post-emergence, 336 h; for activity at 2241.7 g/ha: read-out: Herbicidal activity (% control), postemergence, dicots, 2 lb./A., average, about two weeks after application; for activity at 4483.4 g/ha: read-out: Herbicidal activity (% control), postemergence, dicots, 4 lb./A., average, about two weeks after application
[3] = Postemergence herbicidal activity (% control) against monocot weeds; type: in vivo; settings: post-emergence, 336 h, average, about two weeks after application, read-out: Herbicidal activity (% control), postemergence, monocots; for activity at 2241.7 g/ha: 2 lb./A.; for activity at 4483.4 g/ha: 4 lb./A.
Text: (§3) barnyardgrass (Echinochloa crusgalli) crabgrass (Digitaria spp.) nutsedge (Cyperus esculentus)
(§4) At 2 and 4 pounds per acre:
(§5) **Bermudagrass (Cynodon dactylon)
(§6) *downy brome (Bromus tectorum) foxtail (Setaria faberii)
(§7) Johnsongrass (Sorghum halepense) […]
(§8) quackgrass (Agropyron repens)
(§9) *ryegrass (Lolium perenne)
(§10) *wild oats (Avena factua)
(§11) *yellow millet (Panicum miliaceum)
as §1

rice = assay: Crop tolerance (selective herbicidal activity), rice; type: in vivo
Experimental: as §1, §2

peanuts = assay: Crop tolerance (selective herbicidal activity), peanuts; type: in vivo
Experimental: as §1, §2

[4] = Preemergence herbicidal activity (% control) against monocot weeds; type: in vivo; settings: pre-emergence, 336 h, average, about two weeks after application, read-out: Herbicidal activity (% control), preemergence, monocots; for activity at 2241.7 g/ha: 2 lb./A.; for activity at 4483.4 g/ha: 4 lb./A.
Text: as §3, §4, §5, §6, §7, §8, §9, §10, §11, §1

corn = assay: Crop tolerance (selective herbicidal activity), corn; type: in vivo
Experimental: as §1, §2

soybeans = assay: Crop tolerance (selective herbicidal activity), soybeans; type: in vivo
Experimental: as §1, §2

[5] = postemergence applications or applications on transplanted rice

Structure (SMILES) | Tolerance to wheat (wheat; postemergence applications) | Tolerance to wheat (wheat; preemergence applications) | activity at 2241.7 g/ha [1] [%] | activity at 4483.4 g/ha [1] [%] | activity at 2241.7 g/ha [2] [%] | activity at 4483.4 g/ha [2] [%] | activity at 2241.7 g/ha [3] [%] | activity at 4483.4 g/ha [3] [%] | Tolerance to rice (rice; [5]) | Tolerance to rice (rice; preemergence applications) | Tolerance to peanuts (peanuts; postemergence applications) | Tolerance to peanuts (peanuts; preemergence applications) | activity at 2241.7 g/ha [4] [%] | activity at 4483.4 g/ha [4] [%] | Tolerance to corn (corn; postemergence applications) | Tolerance to corn (corn; preemergence applications) | Tolerance to soybeans (soybeans; postemergence or layby applications) | Tolerance to soybeans (soybeans; preemergence applications)
CCC(=O)Nc1cc(Oc2ccc(C(F)(F)F)cc2Cl)ccc1[N+](=O)[O-] [Example 34] | Tolerance (significant tolerance (as shown by 50% or less kill of the test crop at levels of application which give more than 50% kill of many or all of the weeds of Example 73)) | Tolerance (significant tolerance (as shown by 50% or less kill of the test crop at levels of application which give more than 50% kill of many or all of the weeds of Example 73)) | 85 | 52 | 90 | 89 | 47 | 32 | Tolerance (significant tolerance (as shown by 50% or less kill of the test crop at levels of application which give more than 50% kill of many or all of the weeds of Example 73)) | Tolerance (significant tolerance (as shown by 50% or less kill of the test crop at levels of application which give more than 50% kill of many or all of the weeds of Example 73)) | Tolerance (significant tolerance (as shown by 50% or less kill of the test crop at levels of application which give more than 50% kill of many or all of the weeds of Example 73)) | Tolerance (significant tolerance (as shown by 50% or less kill of the test crop at levels of application which give more than 50% kill of many or all of the weeds of Example 73)) | 83 | 35 | Tolerance (significant tolerance (as shown by 50% or less kill of the test crop at levels of application which give more than 50% kill of many or all of the weeds of Example 73)) | Tolerance (significant tolerance (as shown by 50% or less kill of the test crop at levels of application which give more than 50% kill of many or all of the weeds of Example 73)) | Tolerance (significant tolerance (as shown by 50% or less kill of the test crop at levels of application which give more than 50% kill of many or all of the weeds of Example 73)) | Tolerance (significant tolerance (as shown by 50% or less kill of the test crop at levels of application which give more than 50% kill of many or all of the weeds of Example 73))
CSCCOc1cc(Oc2ccc(C(F)(F)F)cc2Cl)ccc1[N+](=O)[O-] [Example 40] |  | Tolerance (significant tolerance (as shown by 50% or less kill of the test crop at levels of application which give more than 50% kill of many or all of the weeds of Example 73)) | 98 | 92 | 100 | 100 | 81 | 64 | Tolerance (significant tolerance (as shown by 50% or less kill of the test crop at levels of application which give more than 50% kill of many or all of the weeds of Example 73)) | Tolerance (significant tolerance (as shown by 50% or less kill of the test crop at levels of application which give more than 50% kill of many or all of the weeds of Example 73)) | Tolerance (significant tolerance (as shown by 50% or less kill of the test crop at levels of application which give more than 50% kill of many or all of the weeds of Example 73)) | Tolerance (significant tolerance (as shown by 50% or less kill of the test crop at levels of application which give more than 50% kill of many or all of the weeds of Example 73)) | 88 | 86 | Tolerance (significant tolerance (as shown by 50% or less kill of the test crop at levels of application which give more than 50% kill of many or all of the weeds of Example 73)) | Tolerance (significant tolerance (as shown by 50% or less kill of the test crop at levels of application which give more than 50% kill of many or all of the weeds of Example 73)) |  | Tolerance (significant tolerance (as shown by 50% or less kill of the test crop at levels of application which give more than 50% kill of many or all of the weeds of Example 73))
CCN(CCO)c1cc(Oc2ccc(C(F)(F)F)cc2Cl)ccc1[N+](=O)[O-] [Example 54] | Tolerance (significant tolerance (as shown by 50% or less kill of the test crop at levels of application which give more than 50% kill of many or all of the weeds of Example 73)) | Tolerance (significant tolerance (as shown by 50% or less kill of the test crop at levels of application which give more than 50% kill of many or all of the weeds of Example 73)) |  | 75 | 100 | 100 | 71 | 79 | Tolerance (significant tolerance (as shown by 50% or less kill of the test crop at levels of application which give more than 50% kill of many or all of the weeds of Example 73)) | Tolerance (significant tolerance (as shown by 50% or less kill of the test crop at levels of application which give more than 50% kill of many or all of the weeds of Example 73)) | Tolerance (significant tolerance (as shown by 50% or less kill of the test crop at levels of application which give more than 50% kill of many or all of the weeds of Example 73)) |  | 98 | 83 | Tolerance (significant tolerance (as shown by 50% or less kill of the test crop at levels of application which give more than 50% kill of many or all of the weeds of Example 73)) | Tolerance (significant tolerance (as shown by 50% or less kill of the test crop at levels of application which give more than 50% kill of many or all of the weeds of Example 73)) |  | Tolerance (significant tolerance (as shown by 50% or less kill of the test crop at levels of application which give more than 50% kill of many or all of the weeds of Example 73))
CC(=O)Oc1cc(Oc2ccc(C(F)(F)F)cc2Cl)ccc1[N+](=O)[O-] [Example 18, 2-Chloro-α,α,α-trifluoro-p-tolyl-3-acetoxy-4-nitrophenylether] | Tolerance (significant tolerance (as shown by 50% or less kill of the test crop at levels of application which give more than 50% kill of many or all of the weeds of Example 73)) | Tolerance (significant tolerance (as shown by 50% or less kill of the test crop at levels of application which give more than 50% kill of many or all of the weeds of Example 73)) | 100 | 100 | 98 | 86 | 28 | 28 | Tolerance (significant tolerance (as shown by 50% or less kill of the test crop at levels of application which give more than 50% kill of many or all of the weeds of Example 73)) |  | Tolerance (significant tolerance (as shown by 50% or less kill of the test crop at levels of application which give more than 50% kill of many or all of the weeds of Example 73)) |  | 99 | 67 | Tolerance (significant tolerance (as shown by 50% or less kill of the test crop at levels of application which give more than 50% kill of many or all of the weeds of Example 73)) |  |  | Tolerance (significant tolerance (as shown by 50% or less kill of the test crop at levels of application which give more than 50% kill of many or all of the weeds of Example 73))
